Measurements from ChEMBL document CHEMBL1201862, “PubChem BioAssay data set” (2004).
“And” between values parts separate entries of the source, which are not always exact repeats. Equal entries are not always repeated.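 Protocol summary: plate cells (96-well), add compound at 5 concentrations, incubate 48 h, interpolate endpoints linearly. Here, GI50 denotes the concentration required for 50% inhibition of growth.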 The source made the active and inactive calls. Rule as the data show it: active = GI50 up to about 1.1 µM and inactive = higher.

Assays:
Assay in all cases: NCI anticancer screen, dose series, 48 h
786-0 = tested on: 786-0
A549 = tested on: A549
ACHN = tested on: ACHN
COLO 205 = tested on: COLO 205
DLD-1 = tested on: DLD-1
DMS-114 = tested on: DMS-114
DMS-273 = tested on: DMS-273
DU-145 = tested on: DU-145
EKVX = tested on: EKVX
HCC 2998 = tested on: HCC 2998
HOP-18 = tested on: HOP-18
HOP-92 = tested on: HOP-92
IGROV-1 = tested on: IGROV-1
KM-20L2 = tested on: KM-20L2
LXFL 529 = tested on: LXFL 529
M19-MEL = tested on: M19-MEL
MDA-N = tested on: MDA-N
MOLT-4 = tested on: MOLT-4
NCI-H460 = tested on: NCI-H460
OVCAR-3 = tested on: OVCAR-3
OVCAR-5 = tested on: OVCAR-5
OVCAR-8 = tested on: OVCAR-8
RXF 393 = tested on: RXF 393
SK-MEL-2 = tested on: SK-MEL-2
SK-MEL-5 = tested on: SK-MEL-5
SNB-19 = tested on: SNB-19
SNB-75 = tested on: SNB-75
SNB-78 = tested on: SNB-78
SW-620 = tested on: SW-620
T47D = tested on: T47D
U-251 = tested on: U-251
UACC-257 = tested on: UACC-257
XF498 = tested on: XF498
A498 = tested on: A498
CAKI-1 = tested on: CAKI-1
CCRF-CEM = tested on: CCRF-CEM
HCT-15 = tested on: HCT-15
HL-60 = tested on: HL-60
HOP-62 = tested on: HOP-62
HT-29 = tested on: HT-29
K562 = tested on: K562
KM12 = tested on: KM12
LOX IMVI = tested on: LOX IMVI
M14 = tested on: M14
Malme-3M = tested on: Malme-3M
NCI-H226 = tested on: NCI-H226
NCI-H23 = tested on: NCI-H23
NCI-H522 = tested on: NCI-H522
OVCAR-4 = tested on: OVCAR-4
RPMI-8226 = tested on: RPMI-8226
RXF 631 = tested on: RXF 631
SF-268 = tested on: SF-268
SF-295 = tested on: SF-295
SF-539 = tested on: SF-539
SK-MEL-28 = tested on: SK-MEL-28
SK-OV-3 = tested on: SK-OV-3
TK-10 = tested on: TK-10
UACC-62 = tested on: UACC-62
UO-31 = tested on: UO-31
HCT-116 = tested on: HCT-116
SN12C = tested on: SN12C
SR = tested on: SR

Measured: GI50

CN(C)CC1CCCC(CN(C)C)C1=O (centres undefined)
1.91 µM (inactive) and 968 nM (active): HOP-92
active: DLD-1 1.12 µM | LXFL 529 0.386 µM | MOLT-4 241 nM and 450 nM | SW-620 196 nM and 271 nM
inactive: 786-0 2.32 µM and 1.77 µM | A549 24.9 µM and 27.2 µM | ACHN 1.33 µM and 1.87 µM | COLO 205 1.67 µM and 3.33 µM | DMS-114 1.48 µM | DMS-273 10.9 µM | DU-145 > 10 µM and 15.6 µM | EKVX 5.74 µM and 6.61 µM | HCC 2998 13.9 µM and 19.3 µM | HOP-18 1.83 µM | IGROV-1 19.3 µM and 18.1 µM | KM-20L2 5.02 µM | M19-MEL 3.65 µM | MDA-N 11 µM and 12.1 µM | NCI-H460 19.8 µM and 17.5 µM | OVCAR-3 2.58 µM and 1.95 µM | OVCAR-5 18.2 µM and 18.3 µM | OVCAR-8 2.71 µM and 2.98 µM | RXF 393 1.73 µM and 1.26 µM | SK-MEL-2 8.73 µM and 17.2 µM | SK-MEL-5 8.38 µM and 16 µM | SNB-19 > 45.6 µM and 47 µM | SNB-75 16.4 µM and 13.9 µM | SNB-78 3.5 µM | T47D 1.69 µM and 1.24 µM | U-251 10.7 µM and 17.9 µM | UACC-257 2.34 µM and 2.11 µM | XF498 2.09 µM

COc1cc2c(cc1OC)C(C(CO)CO)N(CC(O)CCl)CC2 (centres undefined)
> 100 µM: HCT-15
inactive: 786-0 > 100 µM | A498 > 100 µM | A549 > 100 µM | ACHN > 100 µM | CAKI-1 > 100 µM | CCRF-CEM > 100 µM | COLO 205 > 100 µM | DLD-1 > 100 µM | DMS-273 > 100 µM | EKVX > 100 µM | HCC 2998 > 100 µM | HL-60 > 100 µM | HOP-62 > 100 µM | HOP-92 > 100 µM | HT-29 > 100 µM | IGROV-1 > 100 µM | K562 > 100 µM | KM-20L2 > 100 µM | KM12 > 100 µM | LOX IMVI > 100 µM | LXFL 529 > 100 µM | M14 > 100 µM | M19-MEL > 100 µM | MOLT-4 > 100 µM | Malme-3M > 100 µM | NCI-H226 > 100 µM | NCI-H23 > 100 µM | NCI-H460 > 100 µM | NCI-H522 > 100 µM | OVCAR-3 > 100 µM | OVCAR-4 > 100 µM | OVCAR-5 > 100 µM | OVCAR-8 > 100 µM | RPMI-8226 > 100 µM | RXF 631 > 100 µM | SF-268 > 100 µM | SF-295 > 100 µM | SF-539 > 100 µM | SK-MEL-28 > 100 µM | SK-MEL-2 > 100 µM | SK-MEL-5 > 100 µM | SK-OV-3 > 100 µM | SNB-19 > 100 µM | SNB-75 > 100 µM | SNB-78 > 100 µM | SW-620 > 100 µM | TK-10 > 100 µM | U-251 > 100 µM | UACC-257 > 100 µM | UACC-62 > 100 µM | UO-31 86.5 µM | XF498 > 100 µM

COC(=O)/C(=C/c1ccc(OC)cc1)C(C(=O)O)=C1CCCC1
inactive: 786-0 > 100 µM | A498 > 100 µM | A549 > 100 µM | ACHN > 100 µM | CAKI-1 > 100 µM | CCRF-CEM > 100 µM | COLO 205 > 100 µM | DLD-1 > 100 µM | DMS-273 > 100 µM | EKVX > 100 µM | HCC 2998 > 100 µM | HCT-116 > 100 µM | HL-60 > 100 µM | HOP-62 > 100 µM | HOP-92 > 100 µM | HT-29 > 100 µM | IGROV-1 > 100 µM | K562 > 100 µM | KM-20L2 > 100 µM | KM12 > 100 µM | LOX IMVI > 100 µM | LXFL 529 > 100 µM | M14 > 100 µM | M19-MEL > 100 µM | MOLT-4 > 100 µM | NCI-H226 > 100 µM | NCI-H23 > 100 µM | NCI-H460 > 100 µM | NCI-H522 > 100 µM | OVCAR-4 > 100 µM | OVCAR-5 > 100 µM | OVCAR-8 > 100 µM | RPMI-8226 > 100 µM | RXF 393 > 100 µM | RXF 631 > 100 µM | SF-295 > 100 µM | SF-539 > 100 µM | SK-MEL-2 > 100 µM | SK-MEL-5 > 100 µM | SK-OV-3 > 100 µM | SN12C > 100 µM | SNB-19 > 100 µM | SNB-75 > 100 µM | SNB-78 > 100 µM | SR > 100 µM | SW-620 > 100 µM | TK-10 > 100 µM | U-251 > 100 µM | UACC-257 > 100 µM | UACC-62 > 100 µM | UO-31 > 100 µM | XF498 11.7 µM
> 100 µM: HCT-15
